Here are results for two compounds from patent US10828379B2, “In vivo differentiation of relative oxygen levels and tumor necrosis using divalent europium” (WAYNE STATE UNIVERSITY, priority 2015, dated 2020).

A short description of assay [1]: In vivo T1-weighted MRI after intravenous, intraperitoneal and subcutaneous injection. The note with it: liver, kidneys, bladder; equivalent dose for Gd control. On the set-up: species or system mouse. Here is the method:
To test our hypothesis regarding the in vivo response of Eu^II-222, we acquired T1-weighted images of mice after administering Eu^II-222 (0.1 mL, 4 mM, europium dose of 3 mg/kg) through intravenous, intraperitoneal, and subcutaneous injections (FIG. 8). Mice were imaged prior to injection and at 3 and 8 min to compare responses with the three injection types. […] Although this observation is inconsistent with the low oxygen content of venous blood (relative to the peritoneal cavity), the circulation time of blood in a mouse is approximately 8 s (38). […] Therefore, the exchange between venous and arterial blood during circulation can explain our observations.
Studies in animals were carried out with the assistance of the Animal Model and Therapeutics Evaluation Core of the Barbara Ann Karmanos Cancer Institute after approval from the Wayne State University Institutional Animal Care and Use Committee. MRI scans were performed in the Elliman Clinical Research Building at Wayne State University with a 7 T Bruker Clinscan small animal MRI scanner equipped with a 30 cm bore. […]
For intravenous injections, mice were catheterized before being anesthetized with isoflurane. […] A correction volume (0.08 mL) was added to the calculated dose volumes for intravenous injections to account for the volume of the phosphate-buffered saline within the catheter. […]

The test system of assay [2] is 4T1 mammary carcinoma. In words: In vivo T1-weighted MRI after intratumoral injection, with histological staining. On the set-up: species or system mouse. Particulars: bladder, liver, kidneys; Gd control 50 μL, 20.5 mM. Here is the method: To test whether Eu^II-222Fb would enhance contrast in necrotic tissue, we performed T1-weighted MRI before and after intratumoral injection of Eu^II-222Fb (50 μL, 19.4 mM) into a 4T1 mammary carcinoma. The 4T1 carcinoma model is an aggressive tumor that typically develops a necrotic core,^[10] and imaging was performed when tumors reached approximately 700-1000 mg to maximize the probability of necrosis. Images were acquired before and at 3, 20, and 120 min after intratumoral injection (FIG. 3A-D). […]
To better understand the potential mechanism of differentiation, we performed an intratumoral injection of Eu^II-222Fb (50 μL, 6.9 mM) and monitored contrast enhancement over the course of 3 h before sacrificing the mouse and removing the injected tumor for analysis of Eu content by inductively coupled plasma mass spectrometry. […]
Studies in animals were carried out with the assistance of the Animal Model and Therapeutics Evaluation Core of the Barbara Ann Karmanos Cancer Institute after approval from the Wayne State University Institutional Animal Care and Use Committee. […] Animals were pooled, implanted bilaterally subcutaneously with 30-60 mg tumor fragments with a 12 gauge trocar, and imaged when tumors reached approximately 700-1000 mg in size (determined by caliper measurements: tumor mass (mg)≈[tumor length (mm)×tumor width^2 (mm^2)]/2). […]

`O=C([O-])CN(CCN(CC(=O)[O-])CC(=O)[O-])CCN(CC(=O)[O-])CC(=O)[O-].[Gd+3]` [Gd^III-diethylenetriaminepentaacetate]: the “contrast enhancement in organs associated with clearance after intravenous injection” value in assay [1] is recorded as “positive contrast enhancement was observed in the kidneys within 3 min”.

For “Gd^III-1,4,7,10-tetraazacyclododecane-1,4,7,10-tetraacetate”, the “contrast enhancement in organs associated with clearance after intratumoral injection” value in assay [2] was “bright with contrast within minutes of the injection”.
